Data from patent US11957687B2 (REGENERON PHARMACEUTICALS, INC., priority 2019, dated 2024).
pIC50: −log10 of the molar value. Read-outs that look alike come from different tables or passages of the source.

Legend:
[1] = biological target: HSD17B13 (Homo sapiens (Human), UniProt Q7Z5P4); assay: HSD17B13 enzymatic inhibition assay (150 nM or 50 nM HSD17B13); assay type: biochemical
[2] = Microsome stability assay, human liver microsomes; assay type: in vitro ADME; conditions: 1 μM compound, 0.5 mg/mL microsomal protein; for microsomal CLint at 1 h, 1 µM / half-life at 1 h, 1 µM / microsomal CLint at 1 μM / half-life at 1 μM: human, human liver microsomes, pooled, NADPH, 37° C.; for microsomal CLint at 1 h, 1 µM / microsomal CLint at 1 μM: read-out: Microsome Stability Human liver microsomes Cl; for half-life at 1 h, 1 µM / half-life at 1 μM: read-out: Microsome Stability Human liver microsomes T½
Method: (§1) Compounds of the disclosure were screened in microsome stability assays. For the screen, test compounds were incubated at 37° C. with either human liver microsomes (Corning; #452117) or mouse liver microsomes (XenoTech; #M1000), pooled from multiple donors, at 1 μM in the presence of a NADPH regenerating system at 0.5 mg/mL microsomal protein. Positive controls included in the assay were testosterone (3A4 substrate), propafenone (2D6) and diclofenac (2C9). Samples were removed at different time points (0, 5, 10, 20, 30 and 60 minutes) and immediately mixed with cold acetonitrile containing internal standard (IS, 200 ng/mL tolbutamide and 200 ng/mL labetalol). Test compounds incubated with microsomes for 60 minutes without the NADPH regenerating system was also included. A single point for each test condition (n=1) was obtained, and samples were analyzed by LC/MS/MS. Disappearance of the test compound was assessed based on peak area ratios of analyte/IS (no standard curve).

[3] = Microsome stability assay, mouse liver microsomes; assay type: in vitro ADME; conditions: 1 μM compound, 0.5 mg/mL microsomal protein; for microsomal CLint at 1 h, 1 µM / half-life at 1 h, 1 µM: mouse, mouse liver microsomes, pooled, NADPH, 37° C.; for microsomal CLint at 1 h, 1 µM: read-out: Microsome Stability Mouse liver microsomes Cl; for half-life at 1 h, 1 µM: read-out: Microsome Stability Mouse liver microsomes T½
Method: as §1

[4] = 50 nM HSD17B13, read-out: Inhibition of 50 nM of HSD17B13 IC50
[5] = 150 nM HSD17B13, read-out: Inhibition of 150 nM of HSD17B13 IC50

HSD17B13, sequence (Q7Z5P4 other isoform, or with tags, fused parts or gaps): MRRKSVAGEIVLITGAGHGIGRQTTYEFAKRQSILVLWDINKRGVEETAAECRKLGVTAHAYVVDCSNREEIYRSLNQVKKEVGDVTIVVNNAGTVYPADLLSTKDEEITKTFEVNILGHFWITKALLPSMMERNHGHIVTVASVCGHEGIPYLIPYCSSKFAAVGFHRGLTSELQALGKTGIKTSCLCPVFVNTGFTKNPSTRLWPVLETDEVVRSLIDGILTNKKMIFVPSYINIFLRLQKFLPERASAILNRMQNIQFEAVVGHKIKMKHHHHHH

Compound	pIC50 [1, 4]	Microsome Stability Human liver microsomes % Remaining @60 min [2] [%]	microsomal CLint at 1 h, 1 µM [2] [µL/min/mg]	half-life at 1 h, 1 µM [2] [min]	Microsome Stability Mouse liver microsomes % Remaining @60 min [3] [%]	microsomal CLint at 1 h, 1 µM [3] [µL/min/mg]	half-life at 1 h, 1 µM [3] [min]	pIC50 [1, 5]	microsomal CLint at 1 μM [2] [µL/min/mg]	half-life at 1 μM [2] [min]
O=C(NC(c1ccccc1)c1ccc2c(c1)OCO2)c1ccc(C(F)(F)F)[nH]c1=O (centres unmarked) [Compound 3, N-(benzo[d][1,3]dioxol-5-yl(phenyl)methyl)-2-oxo-6-(trifluoromethyl)-1,2-dihydropyridine-3-carboxamide]		1.00	217	6.39				5.88		
O=C(NC(c1ccccc1)c1cccc(C(F)(F)F)c1)c1ccc(C(F)(F)F)[nH]c1=O (centres unmarked) [Compound 7, 2-oxo-N-(phenyl(3-(trifluoromethyl)phenyl)methyl)-6-(trifluoromethyl)-1,2-dihydropyridine-3-carboxamide]	5.51	101.00							< 9.6	> 145
O=C(NC(c1ccccc1)c1ccc(Oc2ccccc2)cc1)c1ccc(C(F)(F)F)[nH]c1=O (centres unmarked) [Compound 16, N-((4-phenoxyphenyl)(phenyl)methyl)-2-oxo-6-(trifluoromethyl)-1,2-dihydropyridine-3-carboxamide]	6.01	23.30							45.2	30.7
O=C(NC(c1ccccc1)c1cccc(O)c1)c1ccc(C(F)(F)F)[nH]c1=O (centres unmarked) [Compound 18, N-((3-hydroxyphenyl)(phenyl)methyl)-2-oxo-6-(trifluoromethyl)-1,2-dihydropyridine-3-carboxamide]	5.61	36.60	33	42						
O=C(NC(c1ccccc1)c1ccccc1O)c1ccc(C(F)(F)F)[nH]c1=O (centres unmarked) [Compound 35, N-((2-hydroxyphenyl)(phenyl)methyl)-2-oxo-6-(trifluoromethyl)-1,2-dihydropyridine-3-carboxamide]		14.90	63.4	21.9				5.56		
Cc1ccc(C(=O)NC(c2ccccc2)c2ccccc2O)c(=O)[nH]1 (centres unmarked) [Compound 65, N-((2-hydroxyphenyl)(phenyl)methyl)-6-methyl-2-oxo-1,2-dihydropyridine-3-carboxamide]		50.10	118					< 4.52		11.8
COc1ccc2c(c1)CCC2NC(=O)c1ccc(C(F)(F)F)[nH]c1=O (centres unmarked) [Compound 134, N-(5-methoxy-2,3-dihydro-1H-inden-1-yl)-2-oxo-6-(trifluoromethyl)-1,2-dihydropyridine-3-carboxamide]	5.85	0.27	410	3.38						
Cc1ccc(CNC(=O)c2ccc(C(F)(F)F)[nH]c2=O)cc1 [Compound 215, N-(4-methylbenzyl)-2-oxo-6-(trifluoromethyl)-1,2-dihydropyridine-3-carboxamide]	5.66	1.00	414	3.35						
COc1ccc2c(c1)CCCC2NC(=O)c1ccc(C(F)(F)F)[nH]c1=O (centres unmarked) [Compound 234, N-(6-methoxy-1,2,3,4-tetrahydronaphthalen-1-yl)-2-oxo-6-(trifluoromethyl)-1,2-dihydropyridine-3-carboxamide]	6.39	1	369	3.76	1	303	4.56			
Cc1ccc2c(c1)CCCC2NC(=O)c1ccc(C(F)(F)F)[nH]c1=O (centres unmarked) [Compound 235, N-(6-methyl-1,2,3,4-tetrahydronaphthalen-1-yl)-2-oxo-6-(trifluoromethyl)-1,2-dihydropyridine-3-carboxamide]	6.70	1	547	2.53	50	23.6	58.7			
CCCC1Cc2ccc(C)cc2C1NC(=O)c1ccc(C(F)(F)F)[nH]c1=O (centres unmarked) [Compound 291, N-(6-methyl-2-propyl-2,3-dihydro-1H-inden-1-yl)-2-oxo-6-(trifluoromethyl)-1,2-dihydropyridine-3-carboxamide]		17.90	54.5	25.5	52.20	21.3	65			

Results, then the compound that gave them:

pIC50 [1, 4]	Microsome Stability Human liver microsomes % Remaining @60 min [2] [%]	microsomal CLint at 1 h, 1 µM [2] [µL/min/mg]	half-life at 1 h, 1 µM [2] [min]	Microsome Stability Mouse liver microsomes % Remaining @60 min [3] [%]	microsomal CLint at 1 h, 1 µM [3] [µL/min/mg]	half-life at 1 h, 1 µM [3] [min]	pIC50 [1, 5]	microsomal CLint at 1 μM [2] [µL/min/mg]	half-life at 1 μM [2] [min]	Compound
5.76	66.90	13.4	103	29.00	42.4	32.7				O=C(NC(c1ccccc1)c1ccccc1)c1ccc(C(F)(F)F)[nH]c1=O [Compound 1, N-benzhydryl-2-oxo-6-(trifluoromethyl)-1,2-dihydropyridine-3-carboxamide]
6.55	0.10	515	2.7				5.80			Cc1ccc(C(NC(=O)c2ccc(C(F)(F)F)[nH]c2=O)c2ccccc2)cc1C (centres unmarked) [Compound 2A, N-((3,4-dimethylphenyl)(phenyl)methyl)-2-oxo-6-(trifluoromethyl)-1,2-dihydropyridine-3-carboxamide]
5.96	93.90							< 9.6	> 145	CS(=O)(=O)Nc1ccc(C(NC(=O)c2ccc(C(F)(F)F)[nH]c2=O)c2ccccc2)cc1 (centres unmarked) [Compound 7A, N-((4-(methylsulfonamido)phenyl)(phenyl)methyl)-2-oxo-6-(trifluoromethyl)-1,2-dihydropyridine-3-carboxamide]
6.03	1.44	138	10.1							CC(C)Cc1ccc(C(NC(=O)c2ccc(C(F)(F)F)[nH]c2=O)c2ccccc2)cc1 (centres unmarked) [Compound 13, N-((4-isobutylphenyl)(phenyl)methyl)-2-oxo-6-(trifluoromethyl)-1,2-dihydropyridine-3-carboxamide]
6.17	2.00	126	11							CCCc1ccc(C(NC(=O)c2ccc(C(F)(F)F)[nH]c2=O)c2ccccc2)cc1 (centres unmarked) [Compound 36, 2-oxo-N-(phenyl(4-propylphenyl)methyl)-6-(trifluoromethyl)-1,2-dihydropyridine-3-carboxamide]
6.11	5.70	92.4	15							CC(C)c1ccc(C(NC(=O)c2ccc(C(F)(F)F)[nH]c2=O)c2ccccc2)cc1 (centres unmarked) [Compound 37, N-((4-isopropylphenyl)(phenyl)methyl)-2-oxo-6-(trifluoromethyl)-1,2-dihydropyridine-3-carboxamide]
